The assay concerns hiPSCs (WTC-11) differentiating to ameloblasts (iAM). In words: AMBN expression (QRT-PCR) in hiPSC-derived ameloblast (iAM) differentiation, day 10 to day 16, factors removed or added. As to conditions: for expression of AMBN when the factor is removed: factor removed independently from differentiation day 10 to day 16, compared to when all factors are present. The format is cell-based, human. As to the method: FIGS. 7A-7E: (FIG. 7A) Schematic of the 16-day differentiation protocol produced, which targets the identified signaling pathways utilizing growth factors and small molecules to transition through the ameloblast developmental trajectory. […] Each study was performed in triplicate, with error bars representing SEM. (FIG. 7C) The efficiency of each pathway activated in the differentiation from day 10 to day 16 were assessed by removing each agonist one at a time or adding FGFR2 mini binder to inhibit the FGFR2 pathway. AMBN expression was assessed in QRT-PCR, and each condition was performed in triplicate. Significance was determined by unpaired Student's t-test; ***p<0.001; ****p<0.0001; Graph error bars are the means±SEM.
To dissect which pathways were essential for the differentiation from day 10 to day 16, the process of elimination was used (FIG. 7C). […] It was hypothesized that the cells in culture secrete enough FGF ligands to saturate the receptors, and any exogenous ligands would have minimal effects. To test this hypothesis, a computationally designed protein was used, FGFR2 mini-binder (FGFR-mb), that specifically binds and inhibits the activity of the FGFR2 (Cao et al., 2022). […] This marks the importance of highly specific AI-designed mini-proteins in analyzing the requirement of signaling pathways in differentiation. It is plausible that temporal preciseness and high penetrance, combined with specificity of designed mini-binders to their targets may partially out-compete in the future genetic perturbations of signaling pathway in iPSC derived differentiation paradigms.
Briefly, hiPSCs (WTC-11 human induced pluripotent stem cells) (Coriell, #GM25256) were seeded on 12-well plates coated with growth factor-reduced Matrigel (Corning, #356231) and cultured in mTeSR1 stem cell medium (StemCell Technologies, #85850) until cells reach confluency with medium changes daily. On the first day of differentiation (deemed Day 0), stem cell media is replaced with ameloblast base media consisted of either EpiCult-C media (StemCell Technologies, #05630) or RPMI 1640 Medium (Thermo, #11875093) mixed with EpiLife (Thermo, #MEPI500CA) at 1:1 ratio, supplemented with 0.1× supplement S7 (Thermo, #S0175), 0.1 uM β-mercaptoethanol (BME) (Sigma, #M7522) and 400 um smoothened agonist (SAG) (Selleckchem, #S7779). At day 3 of differentiation 150 μM of bone morphogenic protein-4 (BMP4) (rndsystems, #314-BP-010) is continuously added daily till day 7. At day 8, the base media is supplemented with 1 uM of BMP-I inhibitor (LDN-193189) (Tocris, #6053), 5 uM of GSK3-Inhibitor (CHIR99021) (Selleckchem, #4423), 500 μM epidermal growth factor (EGF) (rndsystems, #236-EG) and 3.5 μM of Neurotrophin-4 (NT4) (rndsystems, #268-N4). The cultures were then harvested at day 10 at an oral epithelium stage, or extended to day 16 by adding 300 μM BMP4, and 800 nM transforming growth factor beta 1(TGFβ1) (rndsystems, #7754-BH) for the early ameloblast stage at day 16. For testing FGFR signaling requirement for the maturation process we added 50 nM purified FGFR-mb (see below) to the media at day 14 and harvested the samples at day 16 of the differentiation.
RNA was extracted using Trizol (Life Technologies) according to manufacturer's instructions. RNA samples were treated with Turbo DNase (Thermo Fisher Scientific) and quantified using Nanodrop ND-1000. Reverse transcription was performed using iScript cDNA Synthesis Kit (Bio-Rad). […]

Consider “EGF: epidermal growth factor (NSDSECPLSHDGYCLHDGVCMYIEALDKYACNCVVGYIGERCQYRDLKWWELR; Epidermal growth factor; UniProt P01133 971-1023, looked up)”, for which the “expression of AMBN when the factor is removed” value (“expression of AMBN” for short) was “significantly reduced to less than half”.

Turning to “TGFβ1: transforming growth factor beta 1”, the “expression of AMBN” value was “significantly reduced to less than half”.

As to “bFGF: exogenous FGF ligand added to the differentiation”, the “AMBN expression on adding bFGF” value (bFGF added to differentiation day 10 to day 16) was “no significant effect”.

`CN[C@H]1CC[C@H](N(Cc2cccc(-c3ccncc3)c2)C(=O)c2sc3ccccc3c2Cl)CC1` [SAG, 3-chloro-N-[(1r,4r)-4-(methylamino)cyclohexyl]-N-[3-(pyridin-4-yl)benzyl]benzo[b]thiophene-2-carboxamide, reference compound]: the “expression of AMBN” value is on record as “significantly reduced to less than half”.

With `Cc1cnc(-c2cnc(NCCNc3ccc(C#N)cn3)nc2-c2ccc(Cl)cc2Cl)[nH]1` [GSKi, 6-[[2-[[4-(2,4-dichlorophenyl)-5-(5-methyl-1H-imidazol-2-yl)-2-pyrimidinyl]amino]ethyl]amino]-3-pyridinecarbonitrile, reference compound], the “expression of AMBN” value is reported as “completely abolished AMBN expression”.
